Assays:
Type in all cases: cell-based
COS-7 and HepG2 cells [1] = assay: Transfection with pCMV GFP plasmid, % GFP positive cells by FACS (cell line not given); settings: cell line and helper lipid not given
Procedure: (§1) Transfections were carried out following standard protocols as is described in EP 0755924. In numerous publications variations of transfection protocols are given. A person acquainted with the field of non-viral transfections, in particular transfections using cationic amphiphiles will be able to use the cationic amphiphiles of the invention in transfection methods known per se. In standard experiments COS-7 cells are transfected with plasmid DNA containing the β-galactosidase reporter gene. Upon successful transfection the cell produces the enzyme β-galactosidase whose activity can be easily measured. Other plasmids comprising alternative reporter genes such as the gene encoding Green Fluorescent Protein or Chloroamphenicol Acetyl Transferase are suited as well. For analyzing stable transfection a plasmid containing the neomycin resistance gene can be used. Toxicity of the cationic amphiphiles towards the cells can be monitored qualitatively and quantitatively by visual inspection of the cells and by a protein determination.
(§2) A solution of cationic amphiphile in a 50/50 molar ratio with DOPE, DOPC or cholesterol in chloroform was dried under a stream of nitrogen. The residual solvent was removed under vacuum. The lipid film was hydrated in water at room temperature and sonicated to clarity in a bath sonicator immediately before use.
(§3) A 4.7 kb pair plasmid containing the GFP reporter gene under control of the cytomegalovirus immediate early gene promoter/enhancer (pCMV GFP).DNA was isolated from E. coli using a Qiagen Plasmid Kit (QIAGEN Inc, USA). The plasmid concentration was determined by measuring the absoption at 260 nm using the relation 1.0 OD=50 μg/ml. The OD260/OD280 value was 1.95.
(§4) COS-7 and HepG2 cells were cultured in Dulbecco's Modified Eagle Medium (DMEM Gibco The Netherlands) containing 7% of fetal calf serum, 2 mM L-Glutamine, 100 units/ml of penicilin and […] of streptomycin at 37° C. in CO2/air (1:19).
(§5) Cells (1×10^5 cells/well) were seeded in 12-well plates and were allowed to grow overnight.
(§6) The complex of cationic amphiphile/helper lipid (1:1) with pCMV GFP was prepared at the charge ratio 2.5:1 (15 nmol lipid and 1 μg DNA), in 100 μl 10 mM HEPES (pH=7.4, 150 mM NaCl). After 10-15 min incubation at room temperature, the resulting complex was diluted in 1 ml medium (DMEM) and 0.5 ml of the mixture was added to the cells and incubated for 4 h at 37° C. The transfection efficiency expressed as a percentage of GFP positive cells was measured by FACS (Fluorescence Activated Cell Soorting) 48 hours after the transfection.
(§7) Control wells underwent identical steps except that no cationic amphiphile was added.

COS-7 and HepG2 cells [2] = assay: Cell survival after transfection (cell line not given); settings: cell line and helper lipid not given; for % surv / % surv mean: Table 11
Procedure: as §1, §4, §5, §6, §7

HepG2 [3] = assay: Transfection with pCMV GFP plasmid, % GFP positive cells by FACS (Table 3); settings: HepG2, DOPE
Procedure: as §1, §2, §3, §4, §5, §6, §7

HepG2 [4] = assay: Cell survival after transfection (Table 3); settings: HepG2, DOPE; note: tested at 6.8 µM
Procedure: as §1, §4, §5, §6, §7
Throughout, for % surv mean: tested at 6.8 µM.

SMILES | % TE (COS-7 and HepG2 cells [1]; Table 1) [%] | % TE (COS-7 and HepG2 cells [1]; Table 2) [%] | % TE (COS-7 and HepG2 cells [1]; Table 7) [%] | % TE (COS-7 and HepG2 cells [1]; Table 8) [%] | % TE (COS-7 and HepG2 cells [1]; Table 9) [%] | % TE (COS-7 and HepG2 cells [1]; Table 10) [%] | % surv cells (COS-7 and HepG2 cells [2]; Table 1) [%] | % surv cells (COS-7 and HepG2 cells [2]; Table 2) [%] | % surv cells (COS-7 and HepG2 cells [2]; Table 7) [%] | % surv cells (COS-7 and HepG2 cells [2]; Table 8) [%] | % surv cells (COS-7 and HepG2 cells [2]; Table 9) [%] | % surv cells (COS-7 and HepG2 cells [2]; Table 10) [%] | % TE (COS-7 and HepG2 cells [1]; Table 4) [%] | % TE (COS-7 and HepG2 cells [1]; Table 6) [%] | % surv cells (COS-7 and HepG2 cells [2]; Table 4) [%] | % surv cells (COS-7 and HepG2 cells [2]; Table 6) [%] | % TE (HepG2 [3]; first value) [%] | % TE mean (HepG2 [3]) [%] | % TE (HepG2 [3]; second value) [%] | % surv cells (HepG2 [4]; first value) [%] | other results
CCCCCCCC/C=C\CCCCCCCCC(CCCCCCCC/C=C\CCCCCCCC)c1cc[n+](C)cc1.[Cl-] [S2, reference compound] | 25.17 | 16.27 | 51.9 | 12.91 | 7.55 | 1.78 | 62.6 | 43.38 | 82.51 | 60.78 | 65.19 | 21.81 |  |  |  |  |  |  |  |  | % TE (COS-7 and HepG2 cells [1]; Table 11, first value): 41.2%; % TE mean (COS-7 and HepG2 cells [1]; Table 11): 42.8%; % TE (COS-7 and HepG2 cells [1]; Table 11, second value): 44.4%; % surv (COS-7 and HepG2 cells [2]; first value): 87.64%; % surv mean (COS-7 and HepG2 cells [2]): 87.24%; % surv (COS-7 and HepG2 cells [2]; second value): 86.84%
CCCCCCCC/C=C\CCCCCCCC[n+]1ccc(CCCCCCCCCCCCCCCCCCC)cc1.[Cl-] [SF14, 1-(9′-cis-octadecenyl)4nonadecyl-pyridinium Chloride] |  |  |  |  |  |  |  |  |  |  |  |  | 7.72 | 1.6 | 78.64 | 93.14 |  |  |  |  | % TE (COS-7 and HepG2 cells [1]; Table 5): 2.79%; % TE (COS-7 and HepG2 cells [1]; Table 11, first value): 2.41%; % TE mean (COS-7 and HepG2 cells [1]; Table 11): 3.1%; % TE (COS-7 and HepG2 cells [1]; Table 11, second value): 3.78%; % surv cells (COS-7 and HepG2 cells [2]; Table 5): 87.81%; % surv (COS-7 and HepG2 cells [2]; first value): 88.63%; % surv mean (COS-7 and HepG2 cells [2]): 87.805%; % surv (COS-7 and HepG2 cells [2]; second value): 86.98%
CCCCCCCC/C=C\CCCCCCCC[n+]1ccc(CCCCCCCCCCCCC)cc1.[Cl-] [SF30, 1-(9′-cis-octadecenyl)-4-tridecyl-pyridinium Chloride] | 9.73 | 16.61 | 13.61 | 3.09 | 13.61 | 5.32 | 78.45 | 46.45 | 84.28 | 75.35 | 84.28 | 60.16 |  |  |  |  |  |  |  |  | 
CCCCCCCCCCCCCc1cc[n+](CCCCCCCC)cc1.[Cl-] [SF32, 1-octyl-4-tridecyl-pyridinium Chloride] | 0.83 | 6.99 | 1.56 | 4.44 | 5.19 | 2.19 | 71.07 | 44.08 | 81.56 | 72.1 | 56.32 | 78.75 |  |  |  |  |  |  |  |  | 
CCCCCCCCCCCCCc1cc[n+](CCCCCCCCCC)cc1.[Cl-] [SF33, 1-decyl-4-tridecyl-pyridinium Chloride] | 3.07 | 9.71 | 0.05 | 3.82 | 3.85 | 5.77 | 78.47 | 39.82 | 87.79 | 75.05 | 68.99 | 69.94 |  |  |  |  |  |  |  |  | 
CCCCCCCCCCCCCc1cc[n+](CCCCCCCCCCCC)cc1.[Cl-] [SF34, 1-dodecyl-4-tridecyl-pyridinium Chloride] | 13.51 | 7.13 | 4.3 | 4.77 | 4.3 | 6.26 | 56.91 | 40.88 | 84.47 | 50.43 | 68.01 | 67.89 |  |  |  |  |  |  |  |  | 
CCCCCCCCCCCCCC[n+]1ccc(CCCCCCCCCCCCC)cc1.[Cl-] [SF35, 1-tetradecyl-4-tridecyl-pyridinium Chloride] | 18.92 | 10.48 | 6.4 | 3.23 | 3.32 | 3.23 | 65.49 | 42.35 | 82.58 | 72.37 | 68.67 | 70.39 |  |  |  |  |  |  |  |  | 
CCCCCCCCCCCCCCCC[n+]1ccc(CCCCCCCCCCCCC)cc1.[Cl-] [SF36, 1-hexadecyl-4-tridecyl-pyridinium Chloride] | 1.39 | 15.06 | 25.36 | 4.46 | 2.73 | 1.75 | 76.77 | 36.8 | 84.28 | 64.88 | 63.36 | 37.75 |  |  |  |  |  |  |  |  | 
CCCCCCCCCCCCCCCCCC[n+]1ccc(CCCCCCCCCCCCC)cc1.[Cl-] [SF37, 1-stearyl-4-tridecyl-pyridinium Chloride] | 4.4 | 18.39 | 8.5 | 5.02 | 2.95 | 2.74 | 70.04 | 41.67 | 75.65 | 70.7 | 64.58 | 63.85 |  |  |  |  |  |  |  |  | 
CCCCCCCC/C=C\CCCCCCCC[n+]1ccc(C)cc1.[Cl-] [SF38, 1-(9′-cis-octadecenyl)-4-methyl-pyridinium Chloride] |  |  |  |  |  |  |  |  |  |  |  |  | 5.43 | 0.47 | 63.19 | 94.13 | 0.82 | 0.555 | 0.29 | 23.6 | % surv cells Mean (HepG2 [4]): 22.05%; % surv cells (HepG2 [4]; second value): 20.5%
CCCCCCCC/C=C\CCCCCCCC[n+]1ccc(CCC)cc1.[Cl-] [SF39, 1-(9′-cis-octadecenyl)-4-propyl-pyridinium Chloride] |  |  |  |  |  |  |  |  |  |  |  |  | 4.38 | 0.84 | 66.48 | 92.2 | 0.1 | 0.085 | 0.07 | 24.55 | % surv cells Mean (HepG2 [4]): 28.015%; % surv cells (HepG2 [4]; second value): 31.48%
CCCCCCCC/C=C\CCCCCCCC[n+]1ccc(CCCCC)cc1.[Cl-] [SF40, 1-(9′-cis-octadecenyl)-4-pentyl-pyridinium Chloride] |  |  |  |  |  |  |  |  |  |  |  |  | 5.18 | 0.16 | 69.87 | 94.54 | 0.04 | 0.09 | 0.14 | 30.55 | % surv cells Mean (HepG2 [4]): 30.09%; % surv cells (HepG2 [4]; second value): 29.63%
CCCCCCCC/C=C\CCCCCCCC[n+]1ccc(CCCCCCC)cc1.[Cl-] [SF41, 1-(9′-cis-octadecenyl)-4-heptyl-pyridinium Chloride] |  |  |  |  |  |  |  |  |  |  |  |  | 7.13 | 3.44 | 60.54 | 89.11 | 0.07 | 0.085 | 0.1 | 28.65 | % surv cells Mean (HepG2 [4]): 34.62%; % surv cells (HepG2 [4]; second value): 40.59%
CCCCCCCC/C=C\CCCCCCCC[n+]1ccc(CCCCCCCCC)cc1.[Cl-] [SF42, 1-(9′-cis-octadecenyl)-4-nonyl-pyridinium Chloride] |  |  |  |  |  |  |  |  |  |  |  |  | 5.05 | 5.13 | 70.14 | 93.49 | 1.2 | 0.925 | 0.65 | 40.1 | % surv cells Mean (HepG2 [4]): 33.785%; % surv cells (HepG2 [4]; second value): 27.47%; % TE (COS-7 and HepG2 cells [1]; Table 5): 0.81%; % TE (COS-7 and HepG2 cells [1]; Table 11, first value): 8.41%; % TE mean (COS-7 and HepG2 cells [1]; Table 11): 7.95%; % TE (COS-7 and HepG2 cells [1]; Table 11, second value): 7.49%; % surv cells (COS-7 and HepG2 cells [2]; Table 5): 75.02%; % surv (COS-7 and HepG2 cells [2]; first value): 86.37%; % surv mean (COS-7 and HepG2 cells [2]): 84.435%; % surv (COS-7 and HepG2 cells [2]; second value): 82.5%

Source: patent US20040259823A1, “Cationic amphiphiles as transfection vehicles” (priority 2001, published 2004)
